Results reported in paper PMC5218480 (PLoS ONE, 2017).

Tested on: MV-4-11 cells
Experiment: Gene expression microarray analysis (Affymetrix PrimeView) and GSEA
Format: cell-based, human
Design: RFU PODN (11730768_x_at) / Fold change /veh PODN (11730768_x_at) / RFU LINC00158 (11744669_a_at) / Fold change /veh LINC00158 (11744669_a_at) / RFU DUSP10 (11751237_a_at) / Fold change /veh DUSP10 (11751237_a_at) / RFU ID3 (11757404_x_at) / Fold change /veh ID3 (11757404_x_at) / RFU PLEKHG5 (11737974_s_at) / Fold change /veh PLEKHG5 (11737974_s_at) / RFU LRRC4B (11730491_at) / Fold change /veh LRRC4B (11730491_at) / RFU GIMAP4 (11747438_a_at) / Fold change /veh GIMAP4 (11747438_a_at) / RFU KRT8 (11758183_x_at) / Fold change /veh KRT8 (11758183_x_at) / RFU CNN1 (11734310_a_at) / Fold change /veh CNN1 (11734310_a_at) / RFU VPS37D (11726825_at) / Fold change /veh VPS37D (11726825_at) / RFU C10orf10 (11716522_x_at) / Fold change /veh C10orf10 (11716522_x_at) / RFU KIR2DL2 /// KIR2DL4 /// KIR2DL5A /// KIR2DL5B /// KIR2DS1 /// KIR2DS2 /// KIR2DS3 /// KIR2DS4 /// KIR3DL3 /// KIR3DL3 /// KIR3DS1 (11738374_at) / Fold change /veh KIR2DL2 /// KIR2DL4 /// KIR2DL5A /// KIR2DL5B /// KIR2DS1 /// KIR2DS2 /// KIR2DS3 /// KIR2DS4 /// KIR3DL3 /// KIR3DL3 /// KIR3DS1 (11738374_at) / RFU C1QL1 (11718748_at) / Fold change /veh C1QL1 (11718748_at) / RFU TMPRSS4 (11747572_a_at) / Fold change /veh TMPRSS4 (11747572_a_at) / RFU HAMP (11756126_x_at) / Fold change /veh HAMP (11756126_x_at) / RFU RNFT2 (11725882_a_at) / Fold change /veh RNFT2 (11725882_a_at) / RFU NR4A2 (11747474_a_at) / Fold change /veh NR4A2 (11747474_a_at) / RFU ABCC12 (11746883_a_at) / Fold change /veh ABCC12 (11746883_a_at) / RFU TMEM136 (11760407_x_at) / Fold change /veh TMEM136 (11760407_x_at) / RFU CLDN22 /// WWC2 (11732394_at) / Fold change /veh CLDN22 /// WWC2 (11732394_at) / RFU HLA-DPB1 (11760878_x_at) / Fold change /veh HLA-DPB1 (11760878_x_at) / RFU SPINT1 (11716480_a_at) / Fold change /veh SPINT1 (11716480_a_at) / RFU GAP43 (11754022_s_at) / Fold change /veh GAP43 (11754022_s_at) / RFU A4GNT (11735810_at) / Fold change /veh A4GNT (11735810_at) / RFU PRB3 (11715151_x_at) / Fold change /veh PRB3 (11715151_x_at) / RFU TUBB4B (11761932_at) / Fold change /veh TUBB4B (11761932_at) / RFU CAPN14 (11732068_a_at) / Fold change /veh CAPN14 (11732068_a_at) / RFU TMCC2 (11721928_a_at) / Fold change /veh TMCC2 (11721928_a_at) / RFU IRGQ (11745062_a_at) / Fold change /veh IRGQ (11745062_a_at) / RFU FAM174B (11720279_a_at) / Fold change /veh FAM174B (11720279_a_at) / RFU TMPRSS4 (11748680_a_at) / Fold change /veh TMPRSS4 (11748680_a_at) / RFU FAM212B (11763350_a_at) / Fold change /veh FAM212B (11763350_a_at) / RFU PLEKHG5 (11743358_a_at) / Fold change /veh PLEKHG5 (11743358_a_at) / RFU ZSCAN30 (11745921_a_at) / Fold change /veh ZSCAN30 (11745921_a_at) / RFU CMKLR1 (11741424_a_at) / Fold change /veh CMKLR1 (11741424_a_at) / RFU LOC101060620 /// MAPK8IP1 (11723275_at) / Fold change /veh LOC101060620 /// MAPK8IP1 (11723275_at) / RFU SPTSSB (11747773_x_at) / Fold change /veh SPTSSB (11747773_x_at) / RFU PRSS12 (11739890_at) / Fold change /veh PRSS12 (11739890_at) / RFU BIN1 (11741810_x_at) / Fold change /veh BIN1 (11741810_x_at) / RFU WNT11 (11732464_a_at) / Fold change /veh WNT11 (11732464_a_at) / RFU C10orf10 (11716521_a_at) / Fold change /veh C10orf10 (11716521_a_at) / RFU C5orf56 (11738089_at) / Fold change /veh C5orf56 (11738089_at) / RFU CYB561 (11721691_x_at) / Fold change /veh CYB561 (11721691_x_at) / RFU ANKRD19P (11752326_a_at) / Fold change /veh ANKRD19P (11752326_a_at) / RFU OR2T12 /// OR2T33 /// OR2T8 (11738714_s_at) / Fold change /veh OR2T12 /// OR2T33 /// OR2T8 (11738714_s_at) / RFU VCAN (11748164_a_at) / Fold change /veh VCAN (11748164_a_at) / RFU JSRP1 (11732532_at) / Fold change /veh JSRP1 (11732532_at) / RFU KRTAP10-11 (11738290_x_at) / Fold change /veh KRTAP10-11 (11738290_x_at) / RFU MYO3A (11730013_a_at) / Fold change /veh MYO3A (11730013_a_at) / RFU EBF3 (11725865_a_at) / Fold change /veh EBF3 (11725865_a_at) / RFU CAMK2N1 (11719241_x_at) / Fold change /veh CAMK2N1 (11719241_x_at) / RFU C5orf56 (11738088_a_at) / Fold change /veh C5orf56 (11738088_a_at) / RFU OLFML3 (11715873_a_at) / Fold change /veh OLFML3 (11715873_a_at) / RFU LOC100653217 /// NTM (11731650_a_at) / Fold change /veh LOC100653217 /// NTM (11731650_a_at) / RFU MAPK11 (11762145_a_at) / Fold change /veh MAPK11 (11762145_a_at) / RFU FIZ1 (11724087_x_at) / Fold change /veh FIZ1 (11724087_x_at) / RFU OASL (11726364_x_at) / Fold change /veh OASL (11726364_x_at) / RFU SOX15 (11748057_x_at) / Fold change /veh SOX15 (11748057_x_at) / RFU CD79A (11719716_a_at) / Fold change /veh CD79A (11719716_a_at) / RFU HIST1H1D (11736915_at) / Fold change /veh HIST1H1D (11736915_at) / RFU CASKIN2 (11723855_a_at) / Fold change /veh CASKIN2 (11723855_a_at) / RFU LOC730098 (11760151_x_at) / Fold change /veh LOC730098 (11760151_x_at) / RFU OR4N2 (11742367_at) / Fold change /veh OR4N2 (11742367_at) / RFU PRRT2 (11749266_a_at) / Fold change /veh PRRT2 (11749266_a_at) / RFU SNX32 (11753110_a_at) / Fold change /veh SNX32 (11753110_a_at) / RFU CDHR5 (11726645_a_at) / Fold change /veh CDHR5 (11726645_a_at) / RFU RCAN1 (11760418_a_at) / Fold change /veh RCAN1 (11760418_a_at) / RFU FAM167A (11723789_a_at) / Fold change /veh FAM167A (11723789_a_at) / RFU FAM26E (11764081_at) / Fold change /veh FAM26E (11764081_at) / RFU ISYNA1 (11749810_s_at) / Fold change /veh ISYNA1 (11749810_s_at) / RFU ACY1 (11761880_at) / Fold change /veh ACY1 (11761880_at) / RFU 11764098_at / Fold change /veh 11764098_at / RFU SAMD14 (11745864_x_at) / Fold change /veh SAMD14 (11745864_x_at) / RFU NPB (11741838_a_at) / Fold change /veh NPB (11741838_a_at) / RFU TMPRSS6 (11731388_a_at) / Fold change /veh TMPRSS6 (11731388_a_at) / RFU KRTAP10-2 (11738614_at) / Fold change /veh KRTAP10-2 (11738614_at) / RFU ARHGAP8 /// PRR5-ARHGAP8 (11727945_x_at) / Fold change /veh ARHGAP8 /// PRR5-ARHGAP8 (11727945_x_at) / RFU KRTAP5-7 /// NADSYN1 (11734609_at) / Fold change /veh KRTAP5-7 /// NADSYN1 (11734609_at) / RFU RASL12 (11751679_a_at) / Fold change /veh RASL12 (11751679_a_at) / RFU CDKN2B (11736163_a_at) / Fold change /veh CDKN2B (11736163_a_at) / RFU PRF1 (11729649_at) / Fold change /veh PRF1 (11729649_at) / RFU, ZNF638 /// ZNF638-IT1 / Fold change vs veh, ZNF638 /// ZNF638-IT1 / RFU, PANK3 / Fold change vs veh, PANK3 / RFU, SH3YL1 / Fold change vs veh, SH3YL1 / RFU, ZEB2 / Fold change vs veh, ZEB2 / RFU, NRIP1 / Fold change vs veh, NRIP1 / RFU, PTTG1IP / Fold change vs veh, PTTG1IP / RFU, CAPN2 / Fold change vs veh, CAPN2 / RFU, MED14 / Fold change vs veh, MED14 / RFU, SNORA58 / Fold change vs veh, SNORA58 / RFU, C1orf63 / Fold change vs veh, C1orf63 / RFU, LRRFIP1 / Fold change vs veh, LRRFIP1 / RFU, NDUFAF7 / Fold change vs veh, NDUFAF7 / RFU, SLC12A2 / Fold change vs veh, SLC12A2 / RFU, IBTK / Fold change vs veh, IBTK / RFU, ESF1 / Fold change vs veh, ESF1 / Fold change vs veh, TMEM50B / RFU, TAOK1 / Fold change vs veh, TAOK1 / RFU, ACBD3 / Fold change vs veh, ACBD3 / RFU, TMA16 / Fold change vs veh, TMA16 / RFU, RWDD3 / Fold change vs veh, RWDD3 / RFU, BCAT1 / Fold change vs veh, BCAT1 / RFU, EDEM3 / Fold change vs veh, EDEM3 / RFU, TMEM33 / Fold change vs veh, TMEM33 / RFU, WDR75 / Fold change vs veh, WDR75 / RFU, AHCTF1 / Fold change vs veh, AHCTF1 / RFU, TFRC / Fold change vs veh, TFRC / RFU, ZDHHC17 / Fold change vs veh, ZDHHC17 / RFU, NOM1 / Fold change vs veh, NOM1 / RFU, ARL8B / Fold change vs veh, ARL8B / RFU, ZBTB11 / Fold change vs veh, ZBTB11 / RFU, TAMM41 / Fold change vs veh, TAMM41 / RFU, KIAA1704 /// LOC100996395 / Fold change vs veh, KIAA1704 /// LOC100996395 / RFU, ING1 / Fold change vs veh, ING1 / RFU, TRMT61B / Fold change vs veh, TRMT61B / RFU, FUBP3 / Fold change vs veh, FUBP3 / RFU, TP53 / Fold change vs veh, TP53 / RFU, TNKS2 / Fold change vs veh, TNKS2 / RFU, ZFP14 / Fold change vs veh, ZFP14 / RFU, ACTR2 / Fold change vs veh, ACTR2 / RFU, PPP3R1 / Fold change vs veh, PPP3R1 / RFU, PIK3R1 / Fold change vs veh, PIK3R1 / RFU, HNRNPA1 / Fold change vs veh, HNRNPA1 / RFU, RNF170 / Fold change vs veh, RNF170 / RFU, ZNF28 / Fold change vs veh, ZNF28 / RFU, RNGTT / Fold change vs veh, RNGTT / RFU, OGT / Fold change vs veh, OGT / RFU, BRD1 / Fold change vs veh, BRD1 / RFU, MARS / Fold change vs veh, MARS / RFU, ZNF655 / Fold change vs veh, ZNF655 / RFU, FAHD1 / Fold change vs veh, FAHD1 / RFU, BDP1 / Fold change vs veh, BDP1 / RFU, LRRCC1 / Fold change vs veh, LRRCC1 / RFU, ARID1A / Fold change vs veh, ARID1A / RFU, ZNF146 / Fold change vs veh, ZNF146 / RFU, ZNF330 / Fold change vs veh, ZNF330 / RFU, GPN3 / Fold change vs veh, GPN3 / RFU, C9orf123 / Fold change vs veh, C9orf123 / RFU, N4BP2L2 / Fold change vs veh, N4BP2L2 / RFU, ARFIP1 / Fold change vs veh, ARFIP1 / RFU, FAM179B / Fold change vs veh, FAM179B / RFU, BCL10 / Fold change vs veh, BCL10 / RFU, UHRF1BP1L / Fold change vs veh, UHRF1BP1L / RFU, BET1 / Fold change vs veh, BET1 / RFU, CNOT2 / Fold change vs veh, CNOT2 / RFU, ZNF268 / Fold change vs veh, ZNF268 / Fold change vs veh, ZNF507 / RFU, DGCR2 / Fold change vs veh, DGCR2 / RFU, WDSUB1 / Fold change vs veh, WDSUB1 / Fold change vs veh, HSP90B1 /// MIR3652 / RFU, ADSS / Fold change vs veh, ADSS / RFU, GK / Fold change vs veh, GK / RFU, ZNF148 / Fold change vs veh, ZNF148 / RFU, TAF9 / Fold change vs veh, TAF9 / RFU, SLC1A5 / Fold change vs veh, SLC1A5 / RFU, SLMO2 / Fold change vs veh, SLMO2 / RFU, ABCC4 / Fold change vs veh, ABCC4 / RFU, LOC101060439 /// RAP1B / Fold change vs veh, LOC101060439 /// RAP1B / RFU, RFX7 / Fold change vs veh, RFX7 / RFU, GTPBP10 / Fold change vs veh, GTPBP10 / RFU, CNEP1R1 / Fold change vs veh, CNEP1R1 / RFU, BIVM-ERCC5 /// ERCC5 / Fold change vs veh, BIVM-ERCC5 /// ERCC5 / RFU, ILF3 / Fold change vs veh, ILF3 / RFU 11762660_at / Fold change /veh 11762660_at / RFU VCAN (11757783_s_at) / Fold change /veh VCAN (11757783_s_at) / RFU DDX43 (11728927_at) / Fold change /veh DDX43 (11728927_at) / RFU KRT8 (11758188_x_at) / Fold change /veh KRT8 (11758188_x_at) / RFU NKD1 (11759106_at) / Fold change /veh NKD1 (11759106_at) / RFU SRD5A1 (11742802_a_at) / Fold change /veh SRD5A1 (11742802_a_at) / RFU TPSAB1 /// TPSB2 (11721975_s_at) / Fold change /veh TPSAB1 /// TPSB2 (11721975_s_at) / RFU GSTM3 (11746129_a_at) / Fold change /veh GSTM3 (11746129_a_at) / RFU IL23R (11737362_x_at) / Fold change /veh IL23R (11737362_x_at) / RFU TMEM51 (11727254_a_at) / Fold change /veh TMEM51 (11727254_a_at) / RFU PIWIL2 (11732686_x_at) / Fold change /veh PIWIL2 (11732686_x_at) / RFU ORM1 (11744905_x_at) / Fold change /veh ORM1 (11744905_x_at) / RFU CCDC152 (11743942_at) / Fold change /veh CCDC152 (11743942_at) / RFU ECM1 (11717891_a_at) / Fold change /veh ECM1 (11717891_a_at) / RFU IL23R (11748794_a_at) / Fold change /veh IL23R (11748794_a_at) / RFU TNFAIP8L3 (11732012_x_at) / Fold change /veh TNFAIP8L3 (11732012_x_at) / RFU MBOAT4 (11741988_at) / Fold change /veh MBOAT4 (11741988_at) / RFU 11764193_at / Fold change /veh 11764193_at / RFU TMEM53 (11763286_at) / Fold change /veh TMEM53 (11763286_at) / RFU MAGEB2 (11727129_at) / Fold change /veh MAGEB2 (11727129_at) / RFU TMEM200A (11744735_a_at) / Fold change /veh TMEM200A (11744735_a_at) / RFU CCDC152 (11751479_a_at) / Fold change /veh CCDC152 (11751479_a_at) / RFU FAM211A (11726209_a_at) / Fold change /veh FAM211A (11726209_a_at) / RFU RGS16 (11746705_a_at) / Fold change /veh RGS16 (11746705_a_at) / RFU VCAN (11755009_s_at) / Fold change /veh VCAN (11755009_s_at) / RFU RHOB (11743442_s_at) / Fold change /veh RHOB (11743442_s_at) / RFU RGS16 (11720943_a_at) / Fold change /veh RGS16 (11720943_a_at) / RFU RGS16 (11720944_at) / Fold change /veh RGS16 (11720944_at) / RFU, VPS4B / Fold change vs veh, VPS4B / RFU, CREB1 / Fold change vs veh, CREB1 / RFU, DNAJC13 / Fold change vs veh, DNAJC13 / RFU, GNAQ / Fold change vs veh, GNAQ / RFU, CDK5R1 / Fold change vs veh, CDK5R1 / RFU, ZRANB3 / Fold change vs veh, ZRANB3 / RFU, CUL4A / Fold change vs veh, CUL4A / RFU, CCNY / Fold change vs veh, CCNY / RFU, UFL1 / Fold change vs veh, UFL1 / RFU, COG3 / Fold change vs veh, COG3 / RFU, DIAPH2 / Fold change vs veh, DIAPH2 / RFU, SKA2 / Fold change vs veh, SKA2 / RFU, AFF3 / Fold change vs veh, AFF3 / RFU, LMF1 / Fold change vs veh, LMF1 / RFU, IPO11 / Fold change vs veh, IPO11 / RFU, DFFB / Fold change vs veh, DFFB / RFU, FOXP1 / Fold change vs veh, FOXP1 / RFU, CARD8 / Fold change vs veh, CARD8 / RFU, STRN3 / Fold change vs veh, STRN3 / RFU, ADK / Fold change vs veh, ADK / RFU, RASSF2 / Fold change vs veh, RASSF2 / RFU, WIPF1 / Fold change vs veh, WIPF1 / RFU, LARP1B / Fold change vs veh, LARP1B / RFU, RASA1 / Fold change vs veh, RASA1 / RFU, RB1 / Fold change vs veh, RB1 / RFU, PPFIA1 / Fold change vs veh, PPFIA1 / RFU, MAT2A / Fold change vs veh, MAT2A / RFU, CCT5 / Fold change vs veh, CCT5 / RFU, WDR92 / Fold change vs veh, WDR92 / RFU, CUX1 / Fold change vs veh, CUX1 / RFU, TTC7A / Fold change vs veh, TTC7A / RFU, TMEM135 / Fold change vs veh, TMEM135 / RFU, DEPTOR / Fold change vs veh, DEPTOR / RFU, CPM / Fold change vs veh, CPM / RFU, DNAJB6 / Fold change vs veh, DNAJB6 / RFU, CACNA2D3 / Fold change vs veh, CACNA2D3 / RFU, DTX4 / Fold change vs veh, DTX4 / RFU, TFCP2 / Fold change vs veh, TFCP2 / RFU, GMCL1 /// GMCL1P1 / Fold change vs veh, GMCL1 /// GMCL1P1 / RFU, AEBP2 / Fold change vs veh, AEBP2 / RFU, SNHG1 /// SNORD22 /// SNORD25 /// SNORD26 /// SNORD27 /// SNORD28 /// SNORD29 /// SNORD31 / Fold change vs veh, SNHG1 /// SNORD22 /// SNORD25 /// SNORD26 /// SNORD27 /// SNORD28 /// SNORD29 /// SNORD31 / Fold change (Aza/veh), C12orf56 (ProbeSet 11735607_a_at) / Fold change (ACY-1035/veh), C12orf56 (ProbeSet 11735607_a_at) / Fold change (Aza/veh), FGFR1OP (ProbeSet 11751329_s_at) / Fold change (ACY-1035/veh), FGFR1OP (ProbeSet 11751329_s_at) / Fold change (Aza/veh), VPS36 (ProbeSet 11739960_a_at) / Fold change (ACY-1035/veh), VPS36 (ProbeSet 11739960_a_at) / RFU SYPL1 (11715823_x_at) / Fold change /veh SYPL1 (11715823_x_at) / RFU IGFBP7 (11715501_s_at) / Fold change /veh IGFBP7 (11715501_s_at) / RFU REEP3 (11722064_at) / Fold change /veh REEP3 (11722064_at) / RFU IGLL1 (11728026_x_at) / Fold change /veh IGLL1 (11728026_x_at): dose or concentration left out as unconfirmed
Settings: ProbeSet 11744854_x_at; LIST B

Nc1ccc(-c2cccs2)cc1NC(=O)c1ccc2c(c1)cc(C1CC1)n2CCN1CCOCC1 [ACY-1035]
RFU, ZNF28: 57.08 RFU
